These are literature values, as cited in patent US20030013767A1, “Method of treating weight loss using creatine” (priority 2001, published 2003).

Structures are written as SMILES.

The test system of one data set is gyrate atrophy. The settings on record: gyrate atrophy patients.
Data set [1] has as its system severe deficiency of creatine in brain. The settings on record: oral, ten to twelve months.
In data set [2] the test system is animal models of neurologic diseases, such as amyotrophic lateral sclerosis.

Consider `CN(CC(=O)O)C(=N)N` [creatine], for which, in the data set with gyrate atrophy, the “effect on periocular muscles” value is on record as “slight strengthening of the periocular muscles” and the “effect on the atrophy” value is recorded as “no effect on the atrophy”. Moreover, the toxicity result in data set [1] (4 grams/day (305-370 mg/kg/day) to 8 grams/day (600-740 mg/kg/day)) is on record as “no report of toxicity”. Further, the treatment outcome in data set [1] (4 grams/day to 8 grams/day) is listed as “some success”. Further, the therapeutic outcome in data set [2] was “without success”.
